In patent US6482921B1, “Uridyl peptide antibiotic (UPA) derivatives, their synthesis and use” (Essential Therapeutics, Inc., priority 1999, dated 2002):
Converted amounts (≈) assume the structure as drawn.

Legend:
Assay type in all cases: cell-based
[1] = system: Pseudomonas aeruginosa PAM 1020; assay: MIC broth microdilution, P. aeruginosa PAM 1020 (wild type); settings: P. aeruginosa PAM 1020
[2] = system: Pseudomonas aeruginosa PAM 1154; assay: MIC broth microdilution, P. aeruginosa PAM 1154 (OprM::Hg); settings: P. aeruginosa PAM 1154 OprM::Hg
[3] = system: Escherichia Coli MC 4100 AcrAB; assay: MIC broth microdilution, E. coli MC 4100 AcrAB (ΔAcrAB); settings: E. coli AcrAB
[4] = system: Escherichia Coli MC 4100 AcrAB UPA3r; assay: MIC broth microdilution, E. coli MC 4100 AcrAB UPA3r (ΔAcrAB, UPA resistant); settings: E. coli AcrAB UPA3^r
[5] = system: Staphylococcus aureus ATCC 29213; assay: MIC broth microdilution, S. aureus ATCC 29213 (wild type); settings: S. aureus ATCC 29213
[6] = system: Staphylococcus aureus 8325-4; assay: MIC broth microdilution, S. aureus 8325-4 (wild type); settings: S. aureus 8325-4
Escherichia Coli MC 4100 = assay: MIC broth microdilution, E. coli MC 4100 (wild type); settings: E. coli MC 4100
[7] = system: Pseudomonas aeruginosa PAM 1323; assay: MIC broth microdilution, P. aeruginosa PAM 1323 (medium level UPA resistance)
[8] = system: Pseudomonas aeruginosa PAM 1135; assay: MIC broth microdilution, P. aeruginosa PAM 1135 (high level UPA resistance); settings: P. aeruginosa PAM 1135 UPA1^r
[9] = system: Pasteurella multocida pm002; assay: MIC broth microdilution, P. multocida pm002 (wild type)

SMILES | MIC (μg/ml) Broth microdilution [1] | MIC (μg/ml) Broth microdilution [2] | MIC (μg/ml) Broth microdilution [3] | MIC (μg/ml) Broth microdilution [4] | MIC (μg/ml) Broth microdilution [5] | MIC (μg/ml) Broth microdilution [6] | MIC (μg/ml) Broth microdilution (Escherichia Coli MC 4100) | MIC (μg/ml) Broth microdilution [7] | MIC (μg/ml) Broth microdilution [8] | MIC (μg/ml) Broth microdilution [9]
CC(C)CC(NC(=O)NC(Cc1ccc(O)cc1)C(=O)O)C(=O)NC(C(=O)NCC1CC(O)C(n2ccc(=O)[nH]c2=O)O1)C(C)N(C)C(=O)CN [Compound 120, 1-[5′-[(2S,3S)-N^2-[N-[[(1S)-1-Carboxy-4-hydroxyphenethyl]carbamoyl]-L-leucyl)-N^3-glycyl-N^3-methyl-2,3-diaminobutyramidol-3′,5′-dideoxy-α-L-arabinofuranosyl]uracil] | 16 µg/mL (≈ 22.3 µM) | 4 µg/mL (≈ 5.57 µM) | 8 µg/mL (≈ 11.1 µM) | 128 µg/mL (≈ 178 µM) | >512 µg/mL | >512 µg/mL | >512 µg/mL | 512 µg/mL (≈ 712 µM) | >512 µg/mL | 512 µg/mL (≈ 712 µM)
CC(C(NC(=O)C(Cc1ccc(F)cc1)NC(=O)NC(Cc1c[nH]c2ccccc12)C(=O)O)C(=O)NCC1CC(O)C(n2ccc(=O)[nH]c2=O)O1)N(C)C(=O)C(N)Cc1ccc(F)cc1 [Compound 118, 1-[5′-(2S,3S)-N^2-[N-[[(1S)-1-Carboxy-2-indol-3-ylethyl]carbamoyl]-L-4-fluorophenylalanyl]-N^3-L-4-fluorophenylalanyl-N^3-methyl-2,3-diaminobutyramido]-3′,5′-dideoxy-α-L-arabinofuranosyl]uracil] | 128 µg/mL (≈ 142 µM) | 128 µg/mL (≈ 142 µM) | 8 µg/mL (≈ 8.87 µM) | 256 µg/mL (≈ 284 µM) | >512 µg/mL | >512 µg/mL | 512 µg/mL (≈ 568 µM) | 256 µg/mL (≈ 284 µM) | 256 µg/mL (≈ 284 µM) | 256 µg/mL (≈ 284 µM)
C[C@H](N)C(=O)N(C)[C@@H](C)[C@H](NC(=O)[C@H](Cc1ccc2ccccc2c1)NC(=O)N[C@@H](Cc1ccc(O)cc1)C(=O)O)C(=O)NC[C@H]1C[C@@H](O)[C@H](n2ccc(=O)[nH]c2=O)O1 [Compound 152, 1-[5′-[(2S,3S)-N^3-L-Alanyl-N^2-[N-[[(1S)-1-carboxy-4-hydroxyphenethyl)carbamoyl]-L-3-(2-naphthyl)alanyl]-N^3-methyl-2,3-diaminobutyramido]-3′,5′-dideoxy-α-L-arabinofuranosyl]uracil] | 256 µg/mL (≈ 313 µM) | 64 µg/mL (≈ 78.3 µM) | 2 µg/mL (≈ 2.45 µM) | 64 µg/mL (≈ 78.3 µM) | >512 µg/mL | >512 µg/mL | 256 µg/mL (≈ 313 µM) | >512 µg/mL | >512 µg/mL | >512 µg/mL
C[C@@H]([C@H](NC(=O)[C@H](Cc1ccccc1)NC(=O)N[C@@H](Cc1ccc(O)cc1)C(=O)O)C(=O)NC[C@H]1C[C@@H](O)[C@H](n2ccc(=O)[nH]c2=O)O1)N(C)C(=O)[C@@H](N)COCc1ccccc1 [Compound 150, 1-[5′-[(2S,3S)-N^3-(L-O-Benzylserinyl)-N^2-[N-[[(1S)-1-carboxy-4-hydroxyphenethyl]carbamoyl]-L-phenylalanyl]-N^3-methyl-2,3-diaminobutyramido]-3′,5′-dideoxy-α-L-arabinofuranosyl]uracil] | 256 µg/mL (≈ 293 µM) | 64 µg/mL (≈ 73.3 µM) | 8 µg/mL (≈ 9.16 µM) | 512 µg/mL (≈ 587 µM) | >512 µg/mL | >512 µg/mL | 512 µg/mL (≈ 587 µM) | 256 µg/mL (≈ 293 µM) | 256 µg/mL (≈ 293 µM) | 512 µg/mL (≈ 587 µM)
CSCCC(NC(=O)NC(Cc1ccc(O)cc1)C(=O)O)C(=O)NC(C(=O)NCC1CC(O)C(n2ccc(=O)[nH]c2=O)O1)C(C)N(C)C(=O)CN [Compound 104, 1-[5′[(2S,3S)-N^2-(N-[[(1S)-1-Carboxy-4-hydroxyphenethyl]carbamoyl]-L-methionyl]-N^3-glycyl-N^3-methyl-2,3-diaminobutyramidol-3′,5′-dideoxy-α-L-arabinofuranosyl]uracil] | 32 µg/mL (≈ 43.4 µM) | 4 µg/mL (≈ 5.43 µM) | 16 µg/mL (≈ 21.7 µM) | 128 µg/mL (≈ 174 µM) | >512 µg/mL | >512 µg/mL | <512 µg/mL | <512 µg/mL | >512 µg/mL | 256 µg/mL (≈ 347 µM)
CSCCC(NC(=O)NC(Cc1c[nH]c2ccccc12)C(=O)O)C(=O)NC(C(=O)NCC1CC(O)C(n2ccc(=O)[nH]c2=O)O1)C(C)N(C)C(=O)C(C)N [Compound 167, 1-[5′-[(2S,3S)-N^3-L-Alanyl-N^2-[N-[[(1S)-1-carboxy-2-indol-3-ylethyl]carbamoyl]-L-methionyl]-N^3-methyl-2,3-diaminobutyramido]-3′,5′-dideoxy-α-L-arabinofuranosyl]uracil] | 512 µg/mL (≈ 662 µM) | 256 µg/mL (≈ 331 µM) | 4 µg/mL (≈ 5.17 µM) | 128 µg/mL (≈ 165 µM) | >512 µg/mL | >512 µg/mL | 512 µg/mL (≈ 662 µM) | 512 µg/mL (≈ 662 µM) | >512 µg/mL | 128 µg/mL (≈ 165 µM)
CC(C(NC(=O)C(Cc1ccc(F)cc1)NC(=O)NC(Cc1c[nH]c2ccccc12)C(=O)O)C(=O)NCC1CC(O)C(n2ccc(=O)[nH]c2=O)O1)N(C)C(=O)C(N)Cc1ccccc1 [Compound 113, 1-[5′-[(2S,3S)-[N-[[(1S)-1-Carboxy-2-indol-3-ylethyl]carbamoyl]-L-4-fluorophenylalanyl]-N^3-L-phenylalanyl-N^3-methyl-2,3-diaminobutyramido]-3′,5′-dideoxy-α-L-arabinofuranosyl]uracil] | 64 µg/mL (≈ 72.4 µM) | 64 µg/mL (≈ 72.4 µM) | 8 µg/mL (≈ 9.05 µM) | 64 µg/mL (≈ 72.4 µM) | >512 µg/mL | >512 µg/mL | >512 µg/mL | >512 µg/mL | >512 µg/mL | 512 µg/mL (≈ 579 µM)
CC(N)C(=O)N(C)C(C)C(NC(=O)C(Cc1ccc(F)cc1)NC(=O)NC(C(=O)O)c1ccccc1)C(=O)NCC1CC(O)C(n2ccc(=O)[nH]c2=O)O1 (mixture of isomers) [Compound 141, 1-[5′-[(2S,3S)-N^3-L-Alanyl-N^2-[N-[[α(R,S)-1-carboxy-phenmethyl]carbamoyl]-L-4-fluorophenylalanyl]-N^3-methyl-2,3-diaminobutyramido]-3′,5′-dideoxy-α-L-arabinofuranosyl]uracil] | >512 µg/mL | 512 µg/mL | 16 µg/mL | >512 µg/mL | >512 µg/mL | >512 µg/mL | >512 µg/mL | >512 µg/mL | >512 µg/mL | >512 µg/mL
C[C@H](N)C(=O)N(C)[C@@H](C)[C@H](NC(=O)[C@H](Cc1ccccc1)NC(=O)N[C@@H](Cc1c[nH]cn1)C(=O)O)C(=O)NC[C@H]1C[C@@H](O)[C@H](n2ccc(=O)[nH]c2=O)O1 [Compound 149] | 512 µg/mL (≈ 691 µM) | 8 µg/mL (≈ 10.8 µM) | 16 µg/mL (≈ 21.6 µM) | 64 µg/mL (≈ 86.4 µM) | >512 µg/mL | >512 µg/mL | 512 µg/mL (≈ 691 µM) | >512 µg/mL | >512 µg/mL | 256 µg/mL (≈ 346 µM)
